Experimental data reported in ChEMBL document CHEMBL3639182, “Nitrogen containing heteroaryl compounds” (2014).

Target: cAMP and cAMP-inhibited cGMP 3',5'-cyclic phosphodiesterase 10A (Homo sapiens, UniProt Q9Y233)
Assay: Scintillation Proximity Assay : PDE10 activity of the compounds of the present invention was determined using a Scintillation Proximity Assay (SPA)-based method similar to the one previously described (Fawcett, L. et al., Proc Natl Acad Sci USA (2000) 97(7):3702-3707). The human PDE10A full length assay was performed in 96-well micro titer plates. The reaction mixture of 50 μl contained 20 mM HEPES pH=7.5/10 mM MgCl2/0.05 mg/ml BSA (Sigma cat. # A-7906), 50 nM cGMP (Sigma, cat. # G6129) and 50 nM [3H]-cGMP (GE Healthcare, cat. # TRK392 S.A. 13.2 Ci/mmol), 3.75 ng/well PDE10A enzyme (Enzo Life Science, Lausen, Switzerland cat #SE-534) with or without a specific test compound.

Sequence of cAMP and cAMP-inhibited cGMP 3',5'-cyclic phosphodiesterase 10A (Q9Y233 whole entry): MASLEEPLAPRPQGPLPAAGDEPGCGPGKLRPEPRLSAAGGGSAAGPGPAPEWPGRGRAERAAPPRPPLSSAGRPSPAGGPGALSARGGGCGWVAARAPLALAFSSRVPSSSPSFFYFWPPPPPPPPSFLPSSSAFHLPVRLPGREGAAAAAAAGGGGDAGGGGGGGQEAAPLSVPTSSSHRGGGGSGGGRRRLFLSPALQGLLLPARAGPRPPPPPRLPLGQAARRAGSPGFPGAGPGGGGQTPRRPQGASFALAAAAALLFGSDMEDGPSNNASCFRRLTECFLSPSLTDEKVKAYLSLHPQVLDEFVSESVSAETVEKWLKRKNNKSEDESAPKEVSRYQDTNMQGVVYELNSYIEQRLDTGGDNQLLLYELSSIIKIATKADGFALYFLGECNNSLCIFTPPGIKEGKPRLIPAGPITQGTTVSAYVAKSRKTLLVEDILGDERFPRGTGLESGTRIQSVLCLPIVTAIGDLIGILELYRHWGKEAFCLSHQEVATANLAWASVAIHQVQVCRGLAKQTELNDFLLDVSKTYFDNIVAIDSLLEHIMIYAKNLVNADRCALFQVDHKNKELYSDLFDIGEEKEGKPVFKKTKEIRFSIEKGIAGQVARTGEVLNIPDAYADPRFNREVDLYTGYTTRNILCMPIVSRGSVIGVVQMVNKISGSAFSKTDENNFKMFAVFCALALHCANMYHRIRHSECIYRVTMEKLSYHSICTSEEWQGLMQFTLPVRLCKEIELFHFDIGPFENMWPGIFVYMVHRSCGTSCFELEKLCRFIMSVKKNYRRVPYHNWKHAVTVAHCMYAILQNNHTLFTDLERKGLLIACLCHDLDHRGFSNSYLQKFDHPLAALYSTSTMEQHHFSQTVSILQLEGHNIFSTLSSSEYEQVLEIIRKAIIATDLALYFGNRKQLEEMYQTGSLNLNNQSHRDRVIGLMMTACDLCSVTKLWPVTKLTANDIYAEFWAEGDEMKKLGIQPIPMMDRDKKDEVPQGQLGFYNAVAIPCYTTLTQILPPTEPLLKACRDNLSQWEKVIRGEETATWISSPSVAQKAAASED

Compound	IC50
CNC(=O)c1c(NC(=O)c2nc(C3CC3)cnc2Nc2cncnc2)cnn1CC(F)(F)F	27 nM
CC1CCCCN1C(=O)c1ncccc1NC(=O)c1nc(C2CC2)cnc1Nc1cncnc1 (centres undefined)	15.9 nM
Cn1ncc(NC(=O)c2nc(C3CC3)cnc2Nc2cncnc2)c1C(=O)NC1COC1	6.6 nM
CNC(=O)c1ccc(F)c(F)c1NC(=O)c1nc(C2CC2)cnc1Nc1cncnc1	1.8 nM
CNC(=O)c1cc(NC(C)=O)ccc1NC(=O)c1nc(C2CC2)cnc1Nc1cncnc1	0.4 nM
CNC(=O)c1nc(C)ncc1NC(=O)c1nc(C2CC2)cnc1Nc1cncnc1	19.3 nM
CC(CO)CNC(=O)c1c(NC(=O)c2nc(C3CC3)cnc2Nc2cncnc2)cnn1C (centres undefined)	1.5 nM

The remaining compounds from weak to strong by IC50, led by results:

IC50	Compound
425 nM	CN(C(=O)c1ncccc1NC(=O)c1nc(C2CC2)cnc1Nc1cncnc1)C1CCOCC1
32.2 nM	CN(C)C(=O)c1c(NC(=O)c2nc(C3CC3)cnc2Nc2cncnc2)cnn1C
26.8 nM	CN(C(=O)c1ncccc1NC(=O)c1nc(C2CC2)cnc1Nc1cncnc1)C1CC1
8.1 nM	CN(CC(F)(F)F)C(=O)c1ncccc1NC(=O)c1nc(C2CC2)cnc1Nc1cncnc1
0.7 nM	CC(C)(O)CNC(=O)c1cc(C#N)ccc1NC(=O)c1nc(C2CC2)cnc1Nc1cncnc1
0.7 nM	COCCOc1ccc(NC(=O)c2nc(C3CC3)cnc2Nc2cncnc2)c(C(=O)NCC(C)(C)O)c1
0.5 nM	COCc1ccc(NC(=O)c2nc(C3CC3)cnc2Nc2cncnc2)c(C(=O)NCC(C)(C)O)n1
